Measurements taken from PMC12414742, “Amphipathic Octenyl‐Alanine Modified Peptides Mediate Effective siRNA Delivery” (Journal of Peptide Science, 2025).
Where no end group is shown, it is not given here.

Experiments:
[1] = CD spectroscopy, secondary structure estimation; format: physicochemical; conditions: CD in MQ water, 100 μM peptide, 25°C, Reed's estimation; for proportion of alpha helical structure: 1-mm cuvette
Method: CD spectra were recorded on a Jasco J‐1500 CD spectrometer (Jasco, Japan) at 25°C at a concentration of 100 μM. Peptides were dissolved in MQ water and measured using 1‐mm pathlength quartz cuvette. The secondary structure estimates were calculated on the “Protein Secondary Structure Estimation” plugin in the Spectra Manager 2.13 software by using Reed's estimation.

[2] = cited from earlier work
Text: Given that the differences in the peptide hydrophobicity and amphipathicity come from the number of carbons introduced by the alanine and alkenyl‐alanine side chains: three carbons for Ctrl peptide, 13 and 17 for hPep1 an ...

siRNA = assay: Heparin displacement assay (complex stability); format: physicochemical; conditions: peptide/siRNA complexes at MR30 in MQ water, heparin at different concentrations, 15 min RT, SYBR Gold fluorescence, n = 3 in duplicates
Method: For the heparin displacement assay, peptide/siRNA complexes were formed in MQ water at MR30. Fifty microliters of complexes was then transferred to each well of a black 96‐well plate and mixed with 100 μL of 2X SYBR Gold dye (Thermo Fisher Scientific, USA), incubated, and then 50 μL of heparin (Sigma‐Aldrich, USA) solution with different concentrations was added. After 15 min at RT, the fluorescence was measured by Synergy Mx Microplate Reader (BioTek, USA) (ex = 495 nm, em = 537 nm) to determine the amount of accessible siRNA in the complexes. The data was normalized to the fluorescence of free siRNA (defined as 100%) and are expressed as a percentage of accessible siRNA. The results are shown as mean ± SEM of n = 3 in duplicates.

[3] = DLS size, PDI and zeta potential of peptide/siRNA complexes; format: physicochemical
Method: The physicochemical properties (nanoparticle size, polydispersity index [PDI], and zeta potential) of peptide/siLuc complexes were measured by DLS (dynamic light scattering) using the Zetasizer Nano ZS apparatus (Malvern Instruments, UK).
The size and zeta potential of peptide/siLuc particles were measured at MR30 for hPep1, hPep2, and Ctrl peptide. For hPep3, measurements were also taken at different MRs (5–35). The complexes were formulated in 50 μL at a 2 μM final siRNA concentration for size measurement. The average diameter was obtained from three technical replicates, and one measurement was set to five runs (run duration 8 s) in disposable ZEN0040 cuvettes (Malvern Instruments, UK).
To measure the zeta potential, the complexes were diluted eight times in 10 mM HEPES 7.4 buffer. The zeta potential was obtained from three technical measurements in disposable DTS1070 cuvettes (Malvern Instruments, UK) with the number of runs set to automatic. The results are shown as an average of three separate experiments (mean ± SEM). All measurements were performed at 22°C.

bovine red blood cells = assay: Hemolysis (erythrocyte leakage) assay; format: cell-based; conditions: peptide alone 10 μM, 2% RBCs in HBG pH 5.5, 37°C, 1 h, absorbance 450 nm, n = 3 in triplicates
Method: The hemolysis experiments were carried out with bovine red blood cells (RBCs) (Håtunalab, Sweden). The cells were washed three times with HBG 7.4 and then diluted to a final concentration of 2% RBCs in HBG with noted pH. Ten microliters of peptides was added to 190 μL of cells in PCR plates and shaken at 37°C for 1 h. Then the cells were spun down at 500 × g, and 100 μL of supernatant was transferred to transparent 96‐well tissue culture plates. The absorbance of released hemoglobin was measured at 450 nm on a plate reader (Tecan Sunrise, Switzerland). As a positive control, 10% Triton X‐100 was used, while HBG served as a negative control. The percentage of hemolysis was calculated by the formula: hemolysis (%) = [(AS − AN)/(AP − AN)] × 100, where AS is the absorbance for the sample, AP for positive control, and AN for negative control. The results are shown as mean ± SEM of n = 3, done in triplicates.

[4] = DLS, peptide/siLuc complexes at MR30, 2 μM siRNA, 22°C, mean of n = 3

H‐LAKLAKA{R8}AKLLKA{S5}AKAL‐NH2 [hPep1, C-terminally amidated amphipathic CPP with one octenyl- and one pentenyl-alanine]
proportion of alpha helical structure [1]: 15%
random structure estimate [1]: > 60%
order of hydrophobicity of the peptides [2]: hPep1 < hPep2 < hPep3
stability of the NPs against heparin (siRNA release) (siRNA): Ctrl < hPep1 < hPep2 < hPep3
PDI [3, 4]: 0.265

LAKLAKAAAKLLKAAAKAL-NH2 [Ctrl]
proportion of alpha helical structure [1]: zero
random structure estimate [1]: > 60%
stability of the NPs against heparin (siRNA release) (siRNA): Ctrl < hPep1 < hPep2 < hPep3
hemolytic (lytic) activity (bovine red blood cells): almost no activity
NP size (hydrodynamic diameter) [3, 4]: ~ 2000 nm
zeta potential of the complexes ([3]; all tested MRs (5-35)): stayed negative at all tested MRs
zeta potential ([3]; peptide/siLuc complexes at MR30, diluted eight times in 10 mM HEPES 7.4, 22°C, mean of n = 3): −23.7 mV
